Measured values from patent US7553864B2, “Compounds for the treatment of inflammatory disorders and microbial diseases” (Schering Corporation, priority 2005, dated 2009).
Like-named read-outs stand apart in the source and are kept apart here.

Experiments:
ADMP (ADAMTS-4-5) = biological target: T1, ADMP (ADAMTS-4-5) (Homo sapiens, UniProt O75173); test: ADMP activity assay (procedures of WO00/05256); assay type: biochemical
T1 construct: purchased Calbiochem PF113
T1 sequence (O75173 213-837): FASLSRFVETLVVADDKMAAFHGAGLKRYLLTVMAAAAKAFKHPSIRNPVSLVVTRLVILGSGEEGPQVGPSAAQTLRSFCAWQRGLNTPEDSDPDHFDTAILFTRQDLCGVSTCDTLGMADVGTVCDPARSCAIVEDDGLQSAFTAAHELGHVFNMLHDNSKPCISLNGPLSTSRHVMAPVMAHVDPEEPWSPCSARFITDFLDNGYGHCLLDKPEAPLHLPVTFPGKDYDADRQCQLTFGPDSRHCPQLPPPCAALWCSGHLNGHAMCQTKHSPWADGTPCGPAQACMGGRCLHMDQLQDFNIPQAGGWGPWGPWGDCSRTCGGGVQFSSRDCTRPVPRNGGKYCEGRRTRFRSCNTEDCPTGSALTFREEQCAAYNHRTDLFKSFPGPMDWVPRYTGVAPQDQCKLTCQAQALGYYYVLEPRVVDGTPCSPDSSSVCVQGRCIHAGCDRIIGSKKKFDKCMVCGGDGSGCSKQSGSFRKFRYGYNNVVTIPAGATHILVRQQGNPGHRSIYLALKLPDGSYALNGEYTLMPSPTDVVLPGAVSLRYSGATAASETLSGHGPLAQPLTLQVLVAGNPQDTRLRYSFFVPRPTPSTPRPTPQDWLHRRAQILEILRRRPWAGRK
Excerpt: The procedures of International Patent Publication WO00/05256 (published Feb. 3, 2000) were followed for detection of ADMP Activity and for measuring the IC50 of the compounds of the present invention. This was indicative of activity against a desintgrin and metallopropeinase thrombo spondin 4 and 5 (ADAMTS-4-5).
The enzyme was purchased commercially from Calbiochem (Cat# PF113) and the peptide substrate described in the patent was custom-ordered from AnaSpec.

LpxC enzyme = LpxC enzyme assay (RapidFire high-throughput mass spectrometry); assay type: biochemical
Method in brief: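 0.2 nM enzyme with 1.0 μM UDP-3-O-(R-3-hydroxymyristoyl)-N-acetylglucosamine in 25 mM HEPES pH 7.3, 150 mM NaCl, 2.0 mM DTT, 0.01% BSA, 2% DMSO; 60 min at room temperature, quenched with HCl. Substrate and product quantified by RapidFire mass spectrometry; percent conversion gives percent inhibition versus DMSO control.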

[1] = read-out: IC50 rating (ADMP inhibitory activity)
[2] = concentration 0.10 (unit not given)
[3] = concentration 0.20 (unit not given)
[4] = concentration 0.39 (unit not given)
[5] = concentration 0.78 (unit not given)
[6] = concentration 1.56 (unit not given)
[7] = concentration 3.13 (unit not given)
[8] = concentration 6.25 (unit not given)
[9] = concentration 12.50 (unit not given)
[10] = concentration 25 (unit not given)
[11] = read-out: IC50 (ADMP inhibition)

SMILES	IC50 (ADMP (ADAMTS-4-5); [1])	further results
C[C@H](NC(=O)C(O)C(O)C(=O)N1CCc2ccccc2C1)c1ccc(I)cc1 (stereo in doubt) [Compound 210]	0.25 to 1 µM	
CN(C)C(=O)[C@H](O)[C@@H](O)C(=O)Nc1ccc(-c2ccc3ccccc3c2)cc1 [Compound 82]		LpxC enzyme assay rating (% inhibition at indicated concentrations) (LpxC enzyme; [2]): C (less than 10% inhibition); LpxC enzyme assay rating (% inhibition at indicated concentrations) (LpxC enzyme; [3]): B (10-30% inhibition); LpxC enzyme assay rating (% inhibition at indicated concentrations) (LpxC enzyme; [4]): C (less than 10% inhibition); LpxC enzyme assay rating (% inhibition at indicated concentrations) (LpxC enzyme; [5]): C (less than 10% inhibition); LpxC enzyme assay rating (% inhibition at indicated concentrations) (LpxC enzyme; [6]): C (less than 10% inhibition); LpxC enzyme assay rating (% inhibition at indicated concentrations) (LpxC enzyme; [7]): B (10-30% inhibition); LpxC enzyme assay rating (% inhibition at indicated concentrations) (LpxC enzyme; [8]): B (10-30% inhibition); LpxC enzyme assay rating (% inhibition at indicated concentrations) (LpxC enzyme; [9]): A (greater than 30% inhibition); LpxC enzyme assay rating (% inhibition at indicated concentrations) (LpxC enzyme; [10]): A (greater than 30% inhibition)
CN(C)C(=O)[C@H](O)[C@@H](O)C(=O)N(C)c1ccccc1C#Cc1ccccc1 [Compound 103]		LpxC enzyme assay rating (% inhibition at indicated concentrations) (LpxC enzyme; [2]): C (less than 10% inhibition); LpxC enzyme assay rating (% inhibition at indicated concentrations) (LpxC enzyme; [3]): C (less than 10% inhibition); LpxC enzyme assay rating (% inhibition at indicated concentrations) (LpxC enzyme; [4]): B (10-30% inhibition); LpxC enzyme assay rating (% inhibition at indicated concentrations) (LpxC enzyme; [5]): B (10-30% inhibition); LpxC enzyme assay rating (% inhibition at indicated concentrations) (LpxC enzyme; [6]): B (10-30% inhibition); LpxC enzyme assay rating (% inhibition at indicated concentrations) (LpxC enzyme; [7]): B (10-30% inhibition); LpxC enzyme assay rating (% inhibition at indicated concentrations) (LpxC enzyme; [8]): C (less than 10% inhibition); LpxC enzyme assay rating (% inhibition at indicated concentrations) (LpxC enzyme; [9]): B (10-30% inhibition); LpxC enzyme assay rating (% inhibition at indicated concentrations) (LpxC enzyme; [10]): C (less than 10% inhibition)
CN(C)C(=O)[C@H](O)[C@@H](O)C(=O)N(C)c1ccc(-c2ccc3ccccc3c2)cc1 [Compound 104]		LpxC enzyme assay rating (% inhibition at indicated concentrations) (LpxC enzyme; [2]): C (less than 10% inhibition); LpxC enzyme assay rating (% inhibition at indicated concentrations) (LpxC enzyme; [3]): C (less than 10% inhibition); LpxC enzyme assay rating (% inhibition at indicated concentrations) (LpxC enzyme; [4]): C (less than 10% inhibition); LpxC enzyme assay rating (% inhibition at indicated concentrations) (LpxC enzyme; [5]): C (less than 10% inhibition); LpxC enzyme assay rating (% inhibition at indicated concentrations) (LpxC enzyme; [6]): C (less than 10% inhibition); LpxC enzyme assay rating (% inhibition at indicated concentrations) (LpxC enzyme; [7]): C (less than 10% inhibition); LpxC enzyme assay rating (% inhibition at indicated concentrations) (LpxC enzyme; [8]): C (less than 10% inhibition); LpxC enzyme assay rating (% inhibition at indicated concentrations) (LpxC enzyme; [9]): C (less than 10% inhibition); LpxC enzyme assay rating (% inhibition at indicated concentrations) (LpxC enzyme; [10]): B (10-30% inhibition)
COc1ccc(CNC(=O)[C@H](O)[C@@H](O)C(=O)N2CCC(C(C)=O)(c3ccccc3)CC2)cc1 [Compound 108]		IC50 (ADMP (ADAMTS-4-5)): 0.25 to 1 µM
CN(Cc1ccccc1)C(=O)[C@H](O)[C@@H](O)C(=O)NCc1ccc(Cl)cc1 [Compound 110]	0.25 to 1 µM	
O=C(NCc1ccc(C(F)(F)F)cc1)[C@H](O)[C@@H](O)C(=O)N1CCN(c2cccc(Cl)c2)CC1 [Compound 111]	0.25 to 1 µM	
CN(CCc1ccccn1)C(=O)[C@H](O)[C@@H](O)C(=O)NCc1ccc(Cl)cc1 [Compound 113]	0.25 to 1 µM	
C[C@H](NC(=O)[C@H](O)[C@@H](O)C(=O)N1CCc2ccccc2C1)c1ccc(Br)cc1 [Compound 114]	< 0.25 µM	
CC(=O)c1ccc(N2CCN(C(=O)[C@H](O)[C@@H](O)C(=O)NCc3ccc(Cl)cc3)CC2)cc1 [Compound 118]	> 5 µM	
C[C@H](NC(=O)[C@H](O)[C@@H](O)C(=O)N(C)C1CCN(C)CC1)c1ccc(Br)cc1 [Compound 121]	1 to 5 µM	
CN1CCC(N(C)C(=O)[C@H](O)[C@@H](O)C(=O)NCc2ccc(C(F)(F)F)cc2)CC1 [Compound 122]	0.25 to 1 µM	
N[C@@H]1CCN(C(=O)[C@H](O)[C@@H](O)C(=O)NCc2ccc(C(F)(F)F)cc2)C1 [Compound 123]	1 to 5 µM	
CN(C(=O)[C@H](O)[C@@H](O)C(=O)NCc1ccc(C(F)(F)F)cc1)C1CCCCC1 [Compound 125]	0.25 to 1 µM	
O=C(NCc1ccc(C(F)(F)F)cc1)[C@H](O)[C@@H](O)C(=O)N1CCN(c2ccc(F)cc2)CC1 [Compound 126]	0.25 to 1 µM	
CN(C)CCN(C)C(=O)[C@H](O)[C@@H](O)C(=O)NCc1ccc(C(F)(F)F)cc1 [Compound 127]	> 5 µM	
COc1ccc(N2CCN(C(=O)[C@H](O)[C@@H](O)C(=O)N[C@@H](C)c3ccc(Br)cc3)CC2)cc1 [Compound 130]	< 0.25 µM	IC50 (ADMP (ADAMTS-4-5); [11]): 0.17 µM
COc1ccc(N2CCN(C(=O)[C@H](O)[C@@H](O)C(=O)NCCc3cccc(Cl)c3)CC2)cc1 [Compound 131]	0.25 to 1 µM	
COc1ccc(N2CCN(C(=O)[C@H](O)[C@@H](O)C(=O)NCc3ccc(Cl)cc3)CC2)cc1 [Compound 132]	0.25 to 1 µM	
CC(=O)C1(c2ccccc2)CCN(C(=O)[C@H](O)[C@@H](O)C(=O)N[C@@H](C)c2ccc(Br)cc2)CC1 [Compound 133]		IC50 (ADMP (ADAMTS-4-5)): < 0.25 µM
COc1ccc(CNC(=O)[C@H](O)[C@@H](O)C(=O)N2CCC[C@H]2CN2CCCC2)cc1 [Compound 134]	0.25 to 1 µM	
C[C@H](NC(=O)[C@H](O)[C@@H](O)C(=O)N1Cc2ccccc2C[C@@H]1CO)c1ccc(Br)cc1 [Compound 138]	< 0.25 µM	IC50 (ADMP (ADAMTS-4-5); [11]): 0.19 µM

SMILES	IC50 (ADMP (ADAMTS-4-5); [1])	further results
C[C@H](NC(=O)[C@H](O)[C@@H](O)C(=O)N(C)Cc1cc(Cl)cc(Cl)c1)c1ccc(Br)cc1 [Compound 139]	0.25 to 1 µM	
Cc1ccc(N2CCN(C(=O)[C@H](O)[C@@H](O)C(=O)N[C@@H](C)c3ccc(Br)cc3)CC2)cc1C [Compound 142]	0.25 to 1 µM	
COc1cccc(N2CCN(C(=O)[C@H](O)[C@@H](O)C(=O)N[C@@H](C)c3ccc(Br)cc3)CC2)c1 [Compound 143]	< 0.25 µM	IC50 (ADMP (ADAMTS-4-5); [11]): 0.09 µM
C[C@H](NC(=O)[C@H](O)[C@@H](O)C(=O)N1CCN(c2ccc(F)cc2F)CC1)c1ccc(Br)cc1 [Compound 144]	< 0.25 µM	
C[C@H](NC(=O)[C@H](O)[C@@H](O)C(=O)N1CCC(S(=O)(=O)c2ccccc2)CC1)c1ccc(Br)cc1 [Compound 148]	< 0.25 µM	IC50 (ADMP (ADAMTS-4-5); [11]): 0.047 µM
C[C@H](NC(=O)[C@H](O)[C@@H](O)C(=O)N1CCC(Oc2ccccc2)CC1)c1ccc(Br)cc1 [Compound 149]	< 0.25 µM	IC50 (ADMP (ADAMTS-4-5); [11]): 0.09 µM
C[C@H](NC(=O)[C@H](O)[C@@H](O)C(=O)N1CCN(c2ccc(O)cc2)CC1)c1ccc(Br)cc1 [Compound 150]	1 to 5 µM	
C[C@H](NC(=O)[C@H](O)[C@@H](O)C(=O)N1CCC(c2nc3ccccc3s2)CC1)c1ccc(Br)cc1 [Compound 151]	< 0.25 µM	
C[C@H](NC(=O)[C@H](O)[C@@H](O)C(=O)N1CCC2(CC1)C(=O)Nc1ccccc12)c1ccc(Br)cc1 [Compound 152]	1 to 5 µM	
C[C@H](NC(=O)[C@H](O)[C@@H](O)C(=O)N1CCC2(CCCNC2)CC1)c1ccc(Br)cc1 [Compound 158]	> 5 µM	
C[C@H](NC(=O)[C@H](O)[C@@H](O)C(=O)N1CCCC1c1nc2ccccc2s1)c1ccc(Br)cc1 (some centres unmarked) [Compound 160]	< 0.25 µM	IC50 (ADMP (ADAMTS-4-5); [11]): 0.16 µM
COc1ccccc1N1CCN(C(=O)[C@H](O)[C@@H](O)C(=O)N[C@@H](C)c2ccc(Br)cc2)CC1 [Compound 164]	0.25 to 1 µM	
C[C@H](NC(=O)[C@H](O)[C@@H](O)C(=O)N1CCC(N2C(=O)Cc3ccccc32)CC1)c1ccc(Br)cc1 [Compound 165]		IC50 (ADMP (ADAMTS-4-5)): 1 to 5 µM
C[C@H](NC(=O)[C@H](O)[C@@H](O)C(=O)N1CCc2c([nH]c3ccccc23)C1)c1ccc(Br)cc1 [Compound 169]	0.25 to 1 µM	
C[C@H](NC(=O)[C@H](O)[C@@H](O)C(=O)N1CCCC1c1ccccc1)c1ccc(Br)cc1 (some centres unmarked) [Compound 172]	0.25 to 1 µM	
C[C@H](NC(=O)[C@H](O)[C@@H](O)C(=O)N[C@@H]1c2ccccc2C[C@@H]1O)c1ccc(Br)cc1 [Compound 173]	> 5 µM	
C[C@H](NC(=O)[C@H](O)[C@@H](O)C(=O)N[C@H]1c2ccccc2C[C@H]1O)c1ccc(Br)cc1 [Compound 174]	> 5 µM	
C[C@H](NC(=O)[C@H](O)[C@@H](O)C(=O)N1Cc2ccccc2C1)c1ccc(Br)cc1 [Compound 175]	0.25 to 1 µM	
C[C@H](NC(=O)[C@H](O)[C@@H](O)C(=O)N(C)CCc1ccccc1)c1ccc(Br)cc1 [Compound 176]	0.25 to 1 µM	
O=C(NCc1ccc(C(F)(F)F)cc1)[C@H](O)[C@@H](O)C(=O)N1CCc2ccccc2C1 [Compound 180]	0.25 to 1 µM	
O=C(NCc1cccc(I)c1)[C@H](O)[C@@H](O)C(=O)N1CCc2ccccc2C1 [Compound 181]	> 5 µM	
O=C(NCc1ccc(Br)cc1)[C@H](O)[C@@H](O)C(=O)N1CCc2ccccc2C1 [Compound 184]	0.25 to 1 µM	
